The subject of data set [1] is SARS-CoV-2 Delta lineage B.1.617.2, hCoV-19/Russia/PSK-2804/2021. In words: microbe, parasite or virus in culture. The class given is cell-based. Conditions: for IC50: Severe acute respiratory syndrome coronavirus 2, Vero C1008, 96 h.
The test system of data set [2] is SARS-CoV-2 Wuhan lineage B, hCoV-19/Australia/VIC01/2020 (EPI_ISL_406844). The data set can be described thus: microbe, parasite or virus in culture. In kind it is cell-based. Particulars: for IC50: Severe acute respiratory syndrome coronavirus 2, Vero C1008, 96 h.
Data set [3] concerns SARS-CoV-2 Omicron lineage B.1.1.529, hCoV-19/Russia/Moscow171619-031221/2021. In words: microbe, parasite or virus in culture. In kind it is cell-based. Conditions: Severe acute respiratory syndrome coronavirus 2, Vero C1008, 96 h.
The nature of a further data set: in vitro. Conditions: African green monkey.
In data set [4] the test system is lentiviral particles exhibiting S protein of SARS-CoV-2. In words: microbe, parasite or virus in culture. The class given is cell-based. Conditions: for inhibition at 25 µM: Severe acute respiratory syndrome coronavirus 2, 48 h, read-out: % Neutralization at 25 µM.
A short description of data set [5]: Cytotoxicity of compounds on HEK293T cells (MTT). The class given is cell-based. Particulars: human.
Data set [6] has as its target main protease (3CLpro) of SARS-CoV-2 (Severe acute respiratory syndrome coronavirus 2, UniProt P0DTD1). The data set can be described thus: biochemical.
The subject of data set [7] is main viral protease 3CLPro. Conditions: cited from earlier work; for active against 3CLPro at a dose of: range for the four flavonoids.
Setting [8] is: Severe acute respiratory syndrome coronavirus 2.
Where [9] appears, read: HEK293T cells, 72 h, MTT, read-out: CC50.

Read-outs that look alike come from different tables or passages of the source.

By IC50 is commonly meant the concentration needed to halve the response being measured. As to `CC(=O)c1c(O)c(C)c(O)c2c1OC1=CC(=O)c3c(C)noc3[C@@]12C` [Compound 3], the IC50 in [1] was determined as 9.1 ± 1.8 µM; in [2] it was 9.2 ± 2.4 µM; in [3], 3.5 ± 1.1 µM; in data set [4] (setting [8]) it was 32 ± 5.1 µM. The compound also displayed a CC50 at 4 days in “in vitro” of 15.5 ± 2.8 µM. In [4], the inhibition at 25 µM was found to be 65%. Further, in data set [5], the CC50 at 72 h turned out to be 150 ± 18.5 µM.

For the compound `CC(=O)C1=C(O)C=C2Oc3c(C(C)=O)c(O)c(C)c(O)c3[C@@]2(C)[C@@H]1O` [Compound 6], the values for the IC50 in data set [2] and in data set [6] were 65.3 ± 7.4 µM and 112 µM, respectively. The compound further came in with a CC50 in the data set “in vitro” of 99 ± 12.1 µM. Also, the inhibition at 25 µM in data set [4] amounted to 40%. For the same compound, the CC50 at 72 h in data set [5] (setting [9]) was 168 ± 21.2 µM.

Usually melting point stands for the temperature, or range, at which the solid turns liquid. `CC(=O)C1=C(O)C=C2Oc3c(C(=O)CO)c(O)c(C)c(O)c3[C@@]2(C)C1=O` [Compound 10, (2R)-4-acetyl-5,11,13-trihydroxy-10-(2-hydroxyacetyl)-2,12-dimethyl-8-oxatricyclo[7.4.0.0^2,7]trideca-1(9),4,6,10,12-pentaen-3-one]: the melting point was 107 to 110 °C. In data set [1], the half-inhibitory concentration (IC50) came out at 9.7 ± 1.4 µM. For the same compound, the IC50 in data set [2] was 25.3 ± 2.1 µM. For the same compound, the IC50 in data set [6] was around 200 µM. In data set [3], the 50% inhibitory concentration (IC50) worked out at 17.5 ± 3.8 µM. In “in vitro”, this compound returned a CC50 at 4 days of 306 ± 28.6 µM. The inhibition at 25 µM in data set [4] was 45%. Besides, the CC50 at 72 h in data set [5] was 750 ± 36.6 µM.

`CCOC(=O)c1c(CSc2ccccc2)n(C)c2cc(Br)c(O)c(CN(C)C)c12` [Arbidol, reference compound] yielded a concentration for half-maximal inhibition (IC50) in data set [4] (setting [8]) of 12.6 ± 4.1 µM. Also, in data set [4], the inhibition at 25 µM was 58%. For the same compound, the CC50 at 72 h in [5] (setting [9]) was found to be 19.8 ± 4.6 µM.

For `CC(=O)C1=C(O)C=C2Oc3c(C(C)=O)c(O)c(C)c(O)c3[C@@]2(C)C1=O` [Compound 1, (R)-(+)-Usnic acid], the IC50 amounted to 20.9 ± 3.4 µM in data set [1], 10.9 ± 2.2 µM in data set [2] and 3.7 ± 0.8 µM in data set [3]. Moreover, the “inhibition of the main protease (in words)” value in data set [6] is “not an inhibitor”. In “in vitro”, this compound came in with a CC50 of 147 ± 22.1 µM. The “activity against the pseudovirus system (in words)” value in data set [4] is reported as “is not an entry inhibitor”. The inhibition at 25 µM in data set [4] was found to be 12%. The CC50 at 72 h in data set [5] (setting [9]) is above 1000 µM.

Compound `CC(=O)c1c(O)c(C)c(O)c2c1O[C@@H]1CC/C(=C(/C)O)C(=O)[C@]21C` [Compound 13, (2R,4E,7R)-10-acetyl-11,13-dihydroxy-4-(1-hydroxyethylidene)-2,12-dimethyl-8-oxatricyclo [7.4.0.0^2,7] trideca-1(13),9,11-trien-3-one] had a melting point of 100 to 103 °C. Further, half-maximal inhibition in data set [1] (IC50) was put at 13.5 ± 2.1 µM. In addition, the IC50 in data set [2] was determined as 6.7 ± 1.4 µM. This compound also returned an IC50 in data set [3] of 6.6 ± 1.9 µM. In “in vitro”, this compound gave a CC50 at 4 days of 72.7 ± 14.6 µM. Besides, in data set [4], the IC50 turned out to be 5.28 ± 0.8 µM and the inhibition at 25 µM turned out to be 95%. This compound had an IC50 in data set [4] (setting [8]) of 5.3 µM. The same compound displayed a CC50 at 72 h in data set [5] of 151 ± 14.9 µM.

For the compound `O=c1cc(-c2ccc(O)cc2)oc2cc(O)c(O)c(O)c12` [Scutellarein], the “active against 3CLPro at a dose of” value in data set [7] is 1.2 to 5.8 µM.

`CC(=O)C1=C(O)C=C2Oc3c(C(=O)CSC(C)C(=O)O)c(O)c(C)c(O)c3[C@@]2(C)C1=O` (mixture of isomers) [Compound 5b, (2S)-2-({2-[(1R)-12-acetyl-3,5,11-trihydroxy-1,4-dimethyl-13-oxo-8-oxatricyclo[7.4.0.0^2,7]trideca-2(7),3,5,9,11-pentaen-6-yl]-2-oxoethyl}sulfanyl)propanoic acid and (2R)-2-({2-[(1R)-12-acetyl-3,5,11-trihydroxy-1,4-dimethyl-13-oxo-8-oxatricyclo [7.4.0.0^2,7]trideca-2(7),3,5,9,11-pentaen-6-yl]-2-oxoethyl}sulfanyl)propanoic acid (1:1)] yielded a melting point of 91 to 95 °C. For the same compound, in [2], the “antiviral activity (in words)” value was “low activity” and the midpoint of inhibition, the IC50, lay at 76.5 ± 8.2 µM. The compound further returned a CC50 at 4 days in “in vitro” of 176 ± 22.6 µM. Further, in data set [4], the inhibition at 25 µM was found to be 41%. The CC50 at 72 h in data set [5] was above 1000 µM.

With `CCC1=C(O)C[C@H]2Oc3c(C(C)=O)c(O)c(C)c(O)c3[C@@]2(C)C1=O` [Compound 12, (2R,7R)-10-acetyl-4-ethyl-5,11,13-trihydroxy-2,12-dimethyl-8-oxatricyclo[7.4.0.0^2,7]trideca-1(13),4,9,11-tetraen-3-one], the melting point is 58 to 62 °C. In data set [1], this compound registered an IC50 of 85 ± 11.2 µM. Further, in data set [2], the half-inhibitory concentration (IC50) is 91 ± 7.1 µM. For the same compound, in [3], the IC50 stood at 60 ± 12.1 µM. In “in vitro”, this compound had a CC50 at 4 days of 262 ± 32 µM. Moreover, in [4] (setting [8]), the IC50 was determined as 28 ± 3.7 µM. In data set [4], the inhibition at 25 µM came out at 53%. Moreover, the CC50 at 72 h in data set [5] is above 1000 µM.

Consider `CC(=O)C1=C(O)C=C2Oc3c4c(c(C)c(O)c3[C@@]2(C)C1=O)OCC4=O` [Compound 8], for which the “antiviral activity (in words)” value in [1] is “almost no activity”. Moreover, the IC50 in [1] is 95 ± 8.7 µM; in data set [2] it was 44.3 ± 5.2 µM; in [6] it was around 200 µM; in [3] it was 47 ± 6.5 µM. Further, the CC50 at 4 days in “in vitro” came out at 176 ± 19.9 µM. Besides, the “activity against the pseudovirus system (in words)” value in [4] was “no activity”. Besides, the inhibition at 25 µM in data set [4] was found to be 0%. Further, in data set [5], the CC50 at 72 h was 358 ± 31.1 µM.

As for `CCC(CC)COC(=O)[C@H](C)N[P@](=O)(OC[C@H]1O[C@@](C#N)(c2ccc3c(N)ncnn23)[C@H](O)[C@@H]1O)Oc1ccccc1` [Remdesivir, reference compound], the concentration for half-maximal inhibition (IC50) was 2.1 ± 0.16 µM in [1], 3.8 ± 0.42 µM in [2] and 2 ± 0.13 µM in data set [3]. In the data set “in vitro”, this compound yielded a CC50 of 711 ± 21.2 µM.

With `CC(=O)C1=C(O)C[C@H]2Oc3c(C(C)=O)c(O)c(C)c(O)c3[C@@]2(C)C1=O` [Compound 11, (2R,7R)-4,10-diacetyl-5,11,13-trihydroxy-2,12-dimethyl-8-oxatricyclo [7.4.0.0^2,7]trideca-1(9),4,10,12-tetraen-3-one], the IC50 in data set [2] came out at 21 ± 3.5 µM; in [4] (setting [8]), 22 ± 3.2 µM. This compound gave a CC50 at 4 days in the data set “in vitro” of 84.9 ± 12.1 µM. In addition, the inhibition at 25 µM in data set [4] was found to be 78%. In addition, the CC50 at 72 h in data set [5] turned out to be 469 ± 24.2 µM.

With `O=c1c(O)c(-c2ccc(O)c(O)c2)oc2cc(O)c(O)c(O)c12` [Quercetagetin], in data set [7], the “active against 3CLPro at a dose of” value is 1.2 to 5.8 µM.

As for `O=C1c2c(O)cc(O)cc2O[C@H](c2cc(O)c(O)c(O)c2)[C@H]1O` [Dihydromyricetin], in data set [7], the “active against 3CLPro at a dose of” value is 1.2 to 5.8 µM.

In the case of `CC(=O)C1=C(O)C=C2Oc3c(C(=O)CSCCC(=O)O)c(O)c(C)c(O)c3[C@@]2(C)C1=O` [Compound 5a], in data set [2], the “antiviral activity (in words)” value is “no antiviral activity at all”. The CC50 at 4 days in the data set “in vitro” worked out at 177 ± 18.2 µM. Besides, in data set [4], the “activity against the pseudovirus system (in words)” value is listed as “no activity” and the inhibition at 25 µM was determined as 0%. Moreover, in data set [5], the CC50 at 72 h is above 1000 µM.

Compound `CC(=O)c1c(O)c(C)c(O)c2c1O[C@@H]1Cc3onc(C)c3C(=O)[C@]21C` [Compound 14, (1R,9R)-6-acetyl-3,5-dihydroxy-1,4,14-trimethyl-8,12-dioxa-13-azatetracyclo[7.7.0.0^2,7.0^11,^1⁵]hexadeca-2(7),3,5,11(15),13-pentaen-16-one] came in with a melting point of 152 to 156 °C. The “antiviral activity (in words)” value in data set [2] is recorded as “does not exhibit antiviral properties”. Besides, the CC50 at 4 days in the data set “in vitro” amounted to 296 ± 11.9 µM. The inhibition at 25 µM in data set [4] is 15%. In data set [5], the CC50 at 72 h is above 1000 µM.

Take `CC(=O)c1c(O)c(C)c(O)c2c1OC1=Cc3onc(C)c3C(=O)[C@@]12C` [Compound 2]: in data set [2], the “antiviral activity (in words)” value is given as “did not exhibit antiviral activity at all”. Also, in “in vitro”, the CC50 at 4 days came out at 252 ± 31 µM. Moreover, in [4], the “In Vitro (Pseudotype-Based Assay)” value is on record as “yes” and the inhibition at 25 µM came out at 55%. For the same compound, inhibition in [4] (setting [8]) was half-maximal at 30 ± 2.9 µM (IC50). Moreover, in data set [5], the CC50 at 72 h is above 1000 µM.

Take `CC(=O)c1c(O)c(C)c(O)c2c1OC1=CC(=O)/C(=C(/C)N)C(=O)[C@@]12C` [Compound 7]: the “antiviral activity (in words)” value in [2] was “has no antiviral activity at all”. Also, the half-inhibitory concentration (IC50) in data set [6] is around 200 µM. The same compound showed a CC50 at 4 days in the data set “in vitro” of 528 ± 16 µM. Besides, the inhibition at 25 µM in [4] worked out at 12%. In data set [5], this compound displayed a CC50 at 72 h of 850 ± 22.6 µM.

With `O=c1c(O)c(-c2cc(O)c(O)c(O)c2)oc2cc(O)cc(O)c12` [Myricetin], in [7], the “active against 3CLPro at a dose of” value was 1.2 to 5.8 µM.

As for `COc1ccc(-c2cc(=O)c3c(O)c(O)c(O)cc3o2)cc1` [4′-O-methylscutellarein], in [7], the “activity against the main protease (in words)” value was “submicromolar”.
